Assay results published in PubChem BioAssay (NCI).
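In this assay, cells in 96-well plates receive the compound at five concentrations for 48 hours. Endpoints are linearly interpolated between the surrounding concentrations. Definition used: TGI = concentration required for complete inhibition of growth.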

Columns and labels:
Assay in all cases: DTP human tumour cell line panel, 48 h
786-0 renal = test system: 786-0 renal
A498 renal = test system: A498 renal
CCRF-CEM leukemia = test system: CCRF-CEM leukemia
HCC-2998 colon = test system: HCC-2998 colon
HCT-116 colon = test system: HCT-116 colon
MOLT-4 leukemia = test system: MOLT-4 leukemia
NCI-H23 lung = test system: NCI-H23 lung
NCI-H522 lung = test system: NCI-H522 lung
SK-MEL-5 melanoma = test system: SK-MEL-5 melanoma
SNB-75 CNS = test system: SNB-75 CNS
SR leukemia = test system: SR leukemia
TK-10 renal = test system: TK-10 renal
UACC-62 melanoma = test system: UACC-62 melanoma
HS 578T breast = test system: HS 578T breast
MCF7 breast = test system: MCF7 breast
MDA-MB-231 breast = test system: MDA-MB-231 breast
MDA-MB-435 = test system: MDA-MB-435
NCI/ADR-RES ovarian = test system: NCI/ADR-RES ovarian
SK-MEL-2 melanoma = test system: SK-MEL-2 melanoma
MDA-N = test system: MDA-N

Row | SMILES | TGI (786-0 renal) [µM] | TGI (A498 renal) [µM] | TGI (CCRF-CEM leukemia) [µM] | TGI (HCC-2998 colon) [µM] | TGI (HCT-116 colon) [µM] | TGI (MOLT-4 leukemia) [µM] | TGI (NCI-H23 lung) [µM] | TGI (NCI-H522 lung) [µM] | TGI (SK-MEL-5 melanoma) [µM] | TGI (SNB-75 CNS) [µM] | TGI (SR leukemia) [µM] | TGI (TK-10 renal) [µM] | TGI (UACC-62 melanoma) [µM] | TGI (HS 578T breast) [µM] | TGI (MCF7 breast) [µM] | TGI (MDA-MB-231 breast) [µM] | TGI (MDA-MB-435) [µM] | TGI (NCI/ADR-RES ovarian) [µM] | TGI (SK-MEL-2 melanoma) [µM] | TGI (MDA-N) [µM]
1 | C/C(N=NS(=O)(=O)c1ccccc1)=C1\C=CC=CN1O | > 100 | > 100 | > 100 | > 100 | > 100 | > 100 | > 100 | > 100 | > 100 | > 100 | > 100 | > 100 | > 100 |  |  |  |  |  |  | 
2 | c1cncc(C2(c3cc4ccccc4[nH]3)COCO2)c1 (configuration not stated) | > 100 |  | 56.6 | > 100 | > 100 | > 100 | > 100 |  | > 100 | > 100 | > 100 | > 100 | > 100 | > 100 | > 100 | > 100 | > 100 | > 100 | > 100 | 
3 | CC(C)Oc1c(O)c2c3c(oc(=O)n3C=CC2c2ccccc2)c1OC(C)C (configuration not stated) | > 100 |  |  | 35.3 | > 100 | > 100 | 52.2 |  | > 100 | 53.2 |  | 68.2 |  |  | > 100 | > 100 |  | > 100 | 40.1 | > 100
4 | [N-]=[N+]=NC(CCl)c1cn([C@H]2C[C@H](O)[C@@H](CO)O2)c(=O)[nH]c1=O (some centres not stated) | > 100 |  | > 100 | > 100 | > 100 | > 100 | > 100 | > 100 | > 100 | > 100 | > 100 | > 100 | > 100 |  |  |  |  |  | > 100 | 
5 | BrC1=CCC23CC=C(Br)[C@H]4CC2(COC3)C[C@@H]1O4 (some centres not stated) | > 100 |  | 79.5 |  | > 100 | 86 | > 100 | 66.2 | > 100 | 41.6 | > 100 | > 100 | > 100 |  |  |  |  |  | > 100 | 
6 | NC(=O)Nc1ccc(S(=O)(=O)Nc2ccc(S(N)(=O)=O)cc2)cc1 | > 100 | > 100 | > 100 |  | > 100 |  | > 100 | > 100 | > 100 |  |  | > 100 | > 100 |  | > 100 | > 100 | > 100 | > 100 | > 100 | > 100
7 | CS(=O)(=O)OC1CCC2(C#N)CCC1C2=O (configuration not stated) | > 100 | > 100 | > 100 | > 100 | > 100 | > 100 | > 100 | > 100 | > 100 | > 100 | 44 | > 100 | > 100 |  |  |  |  |  | > 100 | 
8 | Cc1ccc2nc3c(=O)[nH]c(=O)nc-3n(C)c2c1C | > 100 |  | > 100 | > 100 | > 100 | > 100 | > 100 | > 100 | > 100 | > 100 |  | > 100 | > 100 | > 100 | > 100 | > 100 | > 100 | > 100 | > 100 | > 100
9 | CC(=O)C1(Cc2cccc3ccccc23)S(=O)(=O)OCCOS1(=O)=O | 44 | 35.7 | > 100 | 31.6 | 41 | > 100 | 60.4 | 47.7 | 24.6 | 65.4 | 44 | 39.6 | 31.9 |  | 39.7 | 29.6 | 27.8 | 61.2 |  | 24.6
10 | CN1C2=C(CC3=C1CC(C)(C)CC3=O)C(=O)CC(C)(C)C2 | > 100 | > 100 | > 100 | > 100 |  | > 100 | > 100 |  | > 100 | > 100 | > 100 | > 100 | > 100 | > 100 | > 100 |  |  | > 100 |  | 
11 | CN1CN(c2ccccc2)C2(CCN(Cc3csc4ccccc34)CC2)C1=O | > 100 |  | > 100 | 42.5 | 19.2 | 29.6 | 80.4 | 35.7 | 22.4 | > 100 | 23.2 | 41.2 | > 100 |  | 37.3 |  | 28.7 | 61.1 |  | 32.2
12 | CCOC(=O)c1nnsc1NC(=O)Nc1ccc(Cc2ccc(NC(=O)Nc3snnc3C(=O)OCC)cc2)cc1 | 33.9 |  | > 100 | > 100 | > 100 | > 100 | > 100 |  | 93 | > 100 |  | > 100 | > 100 | > 100 | > 100 | 95.6 | > 100 | > 100 | > 100 | > 100
13 | COC(=O)/C=C\COCC1C2CCC(=O)C21 (configuration not stated) | > 25 |  | 16.2 | > 25 | > 25 | 20.7 | > 25 | 7.83 | > 25 | > 25 | > 25 | > 25 | > 25 |  | > 25 | > 25 | > 25 | > 25 | > 25 | > 25
14 | COc1ccc(CCCCl)c(C2=NCCc3cc(OC)c(OC)cc32)c1 | > 100 | > 100 | > 100 | > 100 | > 100 | > 100 | > 100 | > 100 | 59.4 | > 100 | > 100 | > 100 | > 100 | > 100 | > 100 | > 100 | > 100 | > 100 | > 100 | 
